# Several values for one entry are separate records, joined by “and”; a condition that tells them apart may be missing. Equal values may be shown once.
# Assays:
# HepG2 cells = experiment: MTT cytotoxicity assay, 72 h; format: cell-based, Human
# Description: (§1) Human hepatoma (HepG2) and fibroblast-like monkey kidney cells (COS-7) were cultured in Dulbecco’s Modified Eagle Medium supplemented with 10% heat-inactivated fetal bovine serum and gentamycin (40 mg/L) at 37°C in a 5% CO2 atmosphere. Cytotoxicity of test compounds was measured by metabolic reduction of mitochondrial enzymes using the MTT assay (3-[4,5-dimethyl-thiazol-2-yl]-2,5-diphenyltetrazolium chloride). Cells were seeded at 10^5 cells/well in 96-well plates and incubated for 72 hours in the presence of a 2-fold 12-point serial dilution of drugs along with drug-free controls. After adding 15 μL of MTT (5 mg/mL) to the wells, plates were centrifuged at 317g for 5 minutes and the pellet was resuspended in isopropanol. Absorbance was measured at 570 nm (CLARIOStar, Labtech BMG). Cell viability was determined by formazan production, and was expressed as a percentage of untreated control wells.
# [1] = MTT cytotoxicity assay, 72 h; format: cell-based, Human; settings: human, HepG2 cells; MTT, 72 h, N = 3
# Description: as §1
# [2] = tested on: P. falciparum Dd2 ABS parasites; experiment: ABS parasite survival assay, 72 h, flow cytometry; format: cell-based; settings: Plasmodium falciparum, DD2, ABS parasites, N = 3; read-out: IC50 Dd2
# Description: (§2) P. falciparum ABS parasites were cultured at 3% hematocrit in human O^+ RBCs in RPMI-1640 media supplemented with 25 mM HEPES, 50 mg/L hypoxanthine, 2 mM L-glutamine, 0.21% sodium bicarbonate, 0.5% (w/v) AlbuMAXII (Invitrogen) and 10 μg/mL gentamycin. Culture flasks were kept in modular incubator chambers (Billups-Rothenberg) in a 5% O2, 5% CO2, and 90% N2 atmosphere at 37°C. Synchronized ring-stage parasites were obtained by two consecutive rounds of treatment with 5% D-sorbitol in 48-hour intervals. […] This was done by exposing cultures at 1% hematocrit and 0.3% parasitemia in 96-well plates in the presence of drugs in a two-fold 10 or 12-point serial dilution in duplicate along with drug-free controls. After a 72-hour incubation, parasite survival was assessed by flow cytometry on an iQue flow cytometer (Sartorius) using SYBR Green and MitoTracker Deep Red FM (Life Technologies) as nuclear stain and vital dye, respectively. Parasite survival was determined as a percentage relative to drug-free control. IC50 values were interpolated from log concentration versus response curves in Prism 9 (GraphPad Prism Software Inc.).
# [3] = tested on: P. falciparum 3D7 ABS parasites; experiment: ABS parasite survival assay, 72 h, flow cytometry; format: cell-based; settings: Plasmodium falciparum, 3D7, ABS parasites, N = 3; read-out: IC50 3D7
# Description: as §2
# COS-7 cells = experiment: MTT cytotoxicity assay, 72 h; format: cell-based, monkey
# Description: as §1
# [4] = MTT cytotoxicity assay, 72 h; format: cell-based, monkey; settings: monkey, COS-7 cells; MTT, 72 h, N = 3
# Description: as §1
# [5] = tested on: P. falciparum NF54-Pfs16-GFP-Luc stage IV-V gametocytes; experiment: Mature gametocyte (stages IV-V) viability, luciferase, 48 h; format: cell-based, Plasmodium falciparum; settings: 5 μM
# Description: P. falciparum NF54-Pfs16-GFP-Luc (MRA-1217), a highly gametocyte-producing strain, was cultured following standard procedures. NF54-Luc ABS parasites were sorbitol-synchronized as previously described and cultured to reach 8–10% parasitemia as mature trophozoites prior to starting gametogenesis induction via nutrient deficit stress. Briefly, stress was induced by replacing only 40% of the culture medium and returning cultures to a 37°C incubation. Cultures were treated with 50 mM N-acetylglucosamine for 10 days to remove ABS parasites. Mature gametocytes (stages IV-V) were isolated using magnetic columns and incubated at 2% gametocytemia and 1.5% hematocrit in 96-well plates containing the test compounds for 48 hours at 37°C, following standard P. falciparum culturing conditions. Methylene blue was used as a gametocytocidal control alongside drug-free wells. Luciferase activity was assessed by adding 40 μL of luciferin substrate (Promega) to 40 μL of parasite lysates and detecting bioluminescence at an integration constant of 10s with the BioTek Cytation 5 Cell Imaging Multimode Reader.
# [6] = tested on: Hz formation in ABS P. falciparum 3D7 parasites; experiment: Cellular heme fractionation assay; format: cell-based, Plasmodium falciparum; settings: for %Hb / %Heme / %Hemozoin / Hb Fe (fg/troph) / Heme Fe (fg/troph) / Hemozoin Fe (fg/troph) / Total Fe (fg/troph): rep 1-4 and Mean
# Description: A heme fractionation assay was used to measure the inhibition of Hz formation in cultured ABS P. falciparum 3D7 parasites as previously described. […] Late trophozoites were harvested after 32 hours of incubation by lysing RBCs with 0.05% saponin followed by multiple washes with 1 × PBS (pH 7.5) to remove any residual traces of hemoglobin. The parasite pellet was resuspended in PBS and the total number of trophozoites isolated was quantified using flow cytometry. Contents of the trophozoite pellet were released by hypotonic lysis and sonication. After centrifugation, treatments with HEPES buffer (pH 7.4), sodium dodecyl sulfate, pyridine, and NaOH, allowed us to separate the fractions corresponding to the different heme species of interest. A microplate reader was employed to measure the UV-visible spectrum of each heme fraction as a Fe(III)heme-pyridine complex. Fractions of undigested hemoglobin, “free” heme, and Hz were quantified using a heme standard curve based on the mass of each heme-Fe species per mature trophozoite (fg/cell), obtained by dividing the total amount of each heme species by the corresponding number of parasites in that fraction as determined by flow cytometry. Statistical comparisons and analyses for trends employed Students’ t-tests (GraphPad Prism version 9).
# [7] = 0.5–3.0 × IC50 vs untreated control
smiles,measurement,setting,value
COc1ccc(Nc2ccnc3c(F)cc(F)cc23)cc1OC [LDT-626],SI (CC50 HepG2 / IC50 3D7),HepG2 cells,9.8
same,CC50 at 72 h,[1],53.8 ± 10.8 µM
same,IC50,[2],3.2 ± 0.4 µM
same,IC50,[3],5.5 ± 0.5 µM
same,SI (CC50 COS-7 / IC50 3D7),COS-7 cells,9.3
same,CC50 at 72 h,[4],50.9 ± 22.2 µM
CN(C)c1ccc2nc3ccc(=[N+](C)C)cc-3sc2c1 [methylene blue],"% Inhibition of viability, mature gametocytes","[5]; mean, N = 3",100%
same,"% Inhibition of viability, mature gametocytes","[5]; mean, N = 3, listed as MB",100.00%
same,"% Inhibition of viability, mature gametocytes",[5]; single replicates,100.00%
CCOc1cc2nccc(Nc3cc(OC)c(OC)c(OC)c3)c2cc1OCC [LDT-620],SI (CC50 HepG2 / IC50 3D7),HepG2 cells,3.8
same,CC50 at 72 h,[1],1.6 ± 0.1 µM
same,IC50,[2],0.5 ± 0.1 µM
same,IC50,[3],0.4 ± 0.05 µM
same,SI (CC50 COS-7 / IC50 3D7),COS-7 cells,6.3
same,CC50 at 72 h,[4],2.6 ± 0.3 µM
COc1ccc(Nc2ccnc3ccc(F)cc23)cc1OC [LDT-625],SI (CC50 HepG2 / IC50 3D7),HepG2 cells,10.3
same,CC50 at 72 h,[1],33.3 ± 3.8 µM
same,IC50,[2],2.9 ± 0.5 µM
same,IC50,[3],3.2 ± 0.8 µM
same,SI (CC50 COS-7 / IC50 3D7),COS-7 cells,6.2
same,CC50 at 72 h,[4],20.4 ± 1.3 µM
"C[C@H]1Cc2c([nH]c3cc(Cl)c(F)cc23)[C@@]2(N1)C(=O)Nc1ccc(Cl)cc12 [KAE609, cipargamin]",%Hb,[6]; 0.5x,3.6542% and 7.0007% and 6.1505% and 3.0130%
same,%Heme,[6]; 0.5x,5.3042% and 5.9396% and 6.0562% and 6.0905%
same,%Hemozoin,[6]; 0.5x,91.0416% and 87.0597% and 87.7934% and 90.8965%
same,Hb Fe (fg/troph),[6]; 0.5x,2.0363 fg/troph and 3.5589 fg/troph and 3.2475 fg/troph and 1.8499 fg/troph
same,Heme Fe (fg/troph),[6]; 0.5x,2.9557 fg/troph and 3.0195 fg/troph and 3.1977 fg/troph and 3.7394 fg/troph
same,Hemozoin Fe (fg/troph),[6]; 0.5x,50.7323 fg/troph and 44.2576 fg/troph and 46.3552 fg/troph and 55.8088 fg/troph
same,Total Fe (fg/troph),[6]; 0.5x,55.72 fg/troph and 50.84 fg/troph and 52.80 fg/troph and 61.40 fg/troph
same,effect on Hz levels,[6]; [7],did not affect Hz formation
same,effect on undigested Hb,[6]; [7],subtle yet significant increment in Hb levels observed under 2 and 2.5 × IC50
same,%Hb,[6]; 1x,5.1693% and 5.1920% and 5.0902% and 5.1212%
same,%Heme,[6]; 1x,5.7735% and 5.8398% and 5.6460% and 5.8813%
same,%Hemozoin,[6]; 1x,89.0573% and 88.9682% and 89.2638% and 88.9975%
same,Hb Fe (fg/troph),[6]; 1x,2.9437 fg/troph and 3.1428 fg/troph and 2.7576 fg/troph and 3.0371 fg/troph
same,Heme Fe (fg/troph),[6]; 1x,3.2877 fg/troph and 3.5349 fg/troph and 3.0588 fg/troph and 3.4878 fg/troph
same,Hemozoin Fe (fg/troph),[6]; 1x,50.7140 fg/troph and 53.8534 fg/troph and 48.3591 fg/troph and 52.7792 fg/troph
same,%Hb,[6]; 2x,6.5332% and 6.7594% and 6.3629% and 6.9166%
same,%Heme,[6]; 2x,5.4724% and 5.9940% and 4.2854% and 5.7076%
same,%Hemozoin,[6]; 2x,87.9944% and 87.2465% and 89.3517% and 87.3758%
same,Hb Fe (fg/troph),[6]; 2x,4.0073 fg/troph and 4.4606 fg/troph and 3.7570 fg/troph and 4.7143 fg/troph
same,Heme Fe (fg/troph),[6]; 2x,3.3567 fg/troph and 3.9555 fg/troph and 2.5303 fg/troph and 3.8902 fg/troph
same,Hemozoin Fe (fg/troph),[6]; 2x,53.9742 fg/troph and 57.5747 fg/troph and 52.7581 fg/troph and 59.5545 fg/troph
same,Total Fe (fg/troph),[6]; 2x,61.34 fg/troph and 65.99 fg/troph and 59.05 fg/troph and 68.16 fg/troph
same,%Hb,[6]; 2.5x,5.1788% and 7.1992% and 6.5284% and 7.3663%
same,%Heme,[6]; 2.5x,6.6682% and 5.2565% and 5.5507% and 5.3264%
same,%Hemozoin,[6]; 2.5x,88.1530% and 87.5443% and 87.9209% and 87.3073%
same,Hb Fe (fg/troph),[6]; 2.5x,2.9541 fg/troph and 4.0082 fg/troph and 4.1259 fg/troph and 4.4913 fg/troph
same,Heme Fe (fg/troph),[6]; 2.5x,3.8037 fg/troph and 2.9266 fg/troph and 3.5080 fg/troph and 3.2476 fg/troph
same,Hemozoin Fe (fg/troph),[6]; 2.5x,50.2849 fg/troph and 48.7406 fg/troph and 55.5658 fg/troph and 53.2328 fg/troph
same,Total Fe (fg/troph),[6]; 2.5x,57.04 fg/troph and 55.68 fg/troph and 63.20 fg/troph and 60.97 fg/troph
same,%Hb,[6]; 3x,3.4597% and 3.9960% and 5.9128% and 5.9841%
same,%Heme,[6]; 3x,6.5997% and 5.1160% and 5.1737% and 5.1489%
same,%Hemozoin,[6]; 3x,89.9406% and 90.8880% and 88.9135% and 88.8671%
same,Heme Fe (fg/troph),[6]; 3x,3.6368 fg/troph and 3.2102 fg/troph and 3.3952 fg/troph and 3.4079 fg/troph
same,Hemozoin Fe (fg/troph),[6]; 3x,49.5627 fg/troph and 57.0293 fg/troph and 58.3496 fg/troph and 58.8192 fg/troph
COc1cc(Nc2ccnc3ccccc23)cc(OC)c1 [LDT-621],SI (CC50 HepG2 / IC50 3D7),HepG2 cells,0.2
same,CC50 at 72 h,[1],0.5 ± 0.1 µM
same,IC50,[2],2 ± 0.3 µM
same,IC50,[3],2.2 ± 0.1 µM
same,SI (CC50 COS-7 / IC50 3D7),COS-7 cells,2.8
same,CC50 at 72 h,[4],6.5 ± 4.2 µM
COc1cc(Nc2ccnc3cc(Br)ccc23)cc(OC)c1OC [LDT-624],SI (CC50 HepG2 / IC50 3D7),HepG2 cells,20.6
same,CC50 at 72 h,[1],32.5 ± 7.5 µM
same,IC50,[2],1 ± 0.2 µM
same,IC50,[3],1.6 ± 0.7 µM
same,SI (CC50 COS-7 / IC50 3D7),COS-7 cells,26.1
same,CC50 at 72 h,[4],41.3 ± 17.2 µM

# — paper PMC11521309, “A novel 4-aminoquinoline chemotype with multistage antimalarial activity and lack of cross-resistance with PfCRT and PfMDR1 mutants” (PLOS Pathogens, 2024)
